Molecules are shown by their SMILES.

Usually IC50 stands for the point on the concentration scale where inhibition reaches its midpoint.

Common to all, as to format: biochemical
One experiment has as its target T1, MMP-2 (Homo sapiens, UniProt P08253).
T1 construct: purchased Calbiochem-Novabiochem International, Inc
T1 sequence (P08253 110-660): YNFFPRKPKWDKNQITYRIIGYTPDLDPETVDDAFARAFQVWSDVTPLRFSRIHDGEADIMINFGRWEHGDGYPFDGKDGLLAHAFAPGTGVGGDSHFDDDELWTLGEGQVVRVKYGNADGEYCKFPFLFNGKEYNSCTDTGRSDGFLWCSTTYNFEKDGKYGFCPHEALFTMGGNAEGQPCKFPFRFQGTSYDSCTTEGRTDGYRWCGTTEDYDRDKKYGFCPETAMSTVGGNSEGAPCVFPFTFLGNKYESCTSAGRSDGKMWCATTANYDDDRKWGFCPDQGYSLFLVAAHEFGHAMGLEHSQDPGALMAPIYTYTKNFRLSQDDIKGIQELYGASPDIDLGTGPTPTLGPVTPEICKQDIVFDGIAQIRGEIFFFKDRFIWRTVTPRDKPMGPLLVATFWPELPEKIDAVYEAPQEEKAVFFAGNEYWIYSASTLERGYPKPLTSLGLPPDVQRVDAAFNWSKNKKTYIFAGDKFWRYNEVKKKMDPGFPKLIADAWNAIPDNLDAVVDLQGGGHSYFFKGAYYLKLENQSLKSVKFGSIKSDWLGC
Description: Assay for inhibitory activities on MMPs (fluorogenic peptide substrate), MMP-2. Particulars: purchased MMP-2; substrate MOCAc-Pro-Leu-Gly-Leu-A2Pr(DNP)-Ala-Arg-NH2. As to the method:
MMP-2 was purchased from Calbiochem-Novabiochem International, Inc.
(§1) The enzymatic activity on MMPs was analyzed by the method described in “C. Graham Knight, Frances Willenbrock and Gillian Murphy: A novel coumarin-labelled peptide for sensitive continuous assays of the matrix metalloproteinases: FEBS LETT., 296, (1992), 263-266”. The substrate MOCAc-Pro-Leu-Gly-Leu-A2Pr(DNP)-Ala-Arg-NH2 was purchased from Peptide Institute, Inc., Osaka, Japan. The measurement of the inhibitory activities (IC50) was carried out by the following four methods;
(§2) (A) Reaction with substrate, enzyme (MMPs) and inhibitor
(§3) (B) Reaction with substrate and inhibitor, without enzyme
(§4) (C) Reaction with substrate and enzyme (MMPs), without inhibitor
(§5) (D) Reaction with substrate only
(§6) IC50 values were calculated by using the following formula and each fluorescence values of above four methods (A to D). % inhibition={1−(A−B)/(C−D)}×100 IC50 means the concentration required to inhibit 50% of the enzyme activity.

A further experiment concerns the target T2, MMP-8 (Homo sapiens, UniProt P22894).
T2 construct: catalytic domain (^99Phe˜^262Gly) was amplified with PCR; His-tag; enterokinase digestion-site; made in house; host or cells: Escherichia coli
Description: Assay for inhibitory activities on MMPs (fluorogenic peptide substrate), MMP-8. Particulars: catalytic domain 99Phe-262Gly; substrate MOCAc-Pro-Leu-Gly-Leu-A2Pr(DNP)-Ala-Arg-NH2.
Excerpt: In regard to MMP-8, catalytic domain (^99Phe˜^262Gly) was amplified with PCR using commercial available Human Bone Marrow cDNA. This was cloned in Escherichia. coli expression vector pTrc99AHE inserted with His-tag sequence and enterokinase digestion-site, induced and expressed by IPTG (Isopropyl-β-D-thiogalactopyranoside) and expressed in a insoluble fraction (Thau F. Ho, M. Walid Qoronfleh, Robert C. Wahl, Trica A. Pulvino, Karen J. Vavra, Joe Falvo, Tracey M. Banks, Patricia G. Brake and Richard B. Ciccarelli: Gene expression, purification and characterization of recombinant human neutrophil collagenase. Gene 146, (1994) 297-301, Prepared by the a improved method of this material). Isolation of MMP-8 from an insoluble fraction was carried out by dissolving in modifier (6M urea) by a usual method and purification with metal chelate chromatography. And then removing modifier (6M urea) with dialysis and refolding of the enzyme spontaneously gave activated MMP-8.
as §1, §2, §3, §4, §5, §6

A further experiment concerns the target T3, MMP-9 (Homo sapiens, UniProt P14780).
T3 construct: endogenous in cells; host or cells: HT1080 human fibrosarcoma cells, TPA-stimulated; enzyme purified from conditioned medium
Kind of experiment: Assay for inhibitory activities on MMPs (fluorogenic peptide substrate), MMP-9. Particulars: MMP-9 from HT1080 cells, activated by TPCK-Trypsin; substrate MOCAc-Pro-Leu-Gly-Leu-A2Pr(DNP)-Ala-Arg-NH2.
Excerpt: MMP-9 was isolated and purified by procedures described in as follows: Yasunori Okada, Yukio Gonoji, Katsumi Naka, Katsuro Tomita, Isao Nakanishi, Kazushi Iwata, Kyoko Yamashita, and Taro Hayakawa: Matrix metalloproteinase 9 (92-kDa gelatinase/type IV collagenase) from HT1080 human fibrosarcoma cells. Purification and activation of the precursor and enzymic properties J. Biol. Chem., 1992, 267 21712-21719, in combination with others: 1)Yasunori Okada, Tatsuhisa Morodomi, Jan J, Enghild, ko Suzuki, Atsushi Yasui, Isao Nakanishi, Guy Salvesen and Hideaki Nagase: Matrix metalloproteinase 2 from human rheumatoid synovial fibroblasts. Purification and activation of the precursor and enzymic properties. Eur. J. Biochem. 1990, 194 721-730; 2)Robin V Ward, Rosalind M Hembry, John J Reynolds and Gillian Murphy: The purification of tissue inhibitor of metalloproteinase-2 from its 72 kDa progelatinase complex. Biochem. J. 1991 278 179-187. In detail, human fibrosarcoma ATCC HT1080 cell line was cultured to confluent in Dulbecco's Modified Medium (DMEM) containing 10% fetal-calf serum at 37° C. for 48 hours. Subsequently, the medium of confluent culture was changed to serum-free DMEM medium. To obtain MMP-9, Phorbol-12-myristate-13-acetate (TPA) must be added to this serum-free DMEM medium at a concentration of 50 ng/ml. The TPA treated medium was centrifuged at 3000 rpm for 15 min and the supernatant was concentrated to 450 ml by a Toyo-Roshi UP-20 apparatus with an ultrafiltration membrane. Then, proMMP-9 in this concentrated solution was purified by using columns of Gelatin-Sepharose and Concanavalin A-Sepharose. The pool containing proMMP-9 was dialyzed, concentrated (Toyo-Roshi UP-20) and applied to columns of Sephacryl S-200 and Green A matrix for the separation from TIMPs. The obtained proMMP-9 fraction was activated by TPCK-Trypsin (Final conc. 3 μg/501 μl React Mix.).
as §1, §2, §3, §4, §5, §6

The next experiment addresses T4, MMP-12 (Homo sapiens, UniProt P39900).
T4 construct: catalytic domain(^100Phe˜^263Gly) was amplified with RT-PCR; His-tag; enterokinase digestion-site; made in house; host or cells: Escherichia coli
Description: Assay for inhibitory activities on MMPs (fluorogenic peptide substrate), MMP-12. Particulars: catalytic domain 100Phe-263Gly; substrate MOCAc-Pro-Leu-Gly-Leu-A2Pr(DNP)-Ala-Arg-NH2. As to the method:
(§7) In regard to MMP-12, catalytic domain(^100Phe˜^263Gly) was amplified with RT-PCR from Human Placenta Total RNA. This was cloned in Escherichia. coli expression vector pTrc99AHE inserted with His-tag sequence and enterokinase digestion-site, induced and expressed by IPTG (Isopropyl-β-D-thiogalactopyranoside) and expressed in a insoluble fraction. Isolation of MMP-12 from an insoluble fraction was carried out by dissolving in modifier (6M urea) by a usual method and purification with metal chelate chromatography (Ni Chelateing Sepharose). And then removing modifier (6M urea) with dialysis and refolding of the enzyme spontaneously gave activated MMP-12.
as §1, §2, §3, §4, §5, §6

In the next experiment the target is T5, MMP-13 (Homo sapiens, UniProt P45452).
T5 construct: catalytic domain (^104Tyr˜^267Gly) was amplified with RT-PCR; His-tag; enterokinase digestion-site; made in house; host or cells: Escherichia coli
Kind of experiment: Assay for inhibitory activities on MMPs (fluorogenic peptide substrate), MMP-13. Particulars: catalytic domain 104Tyr-267Gly; substrate MOCAc-Pro-Leu-Gly-Leu-A2Pr(DNP)-Ala-Arg-NH2. As to the method: as §7, with “MMP-13, mRNA was prepared from carcinoma cell SW1353 derived from human cartilage stimulate by IL-1, TNF and” for “MMP-12,”, “domain (^104Tyr˜^267Gly)” for “domain(^100Phe˜^263Gly)”, “RT-PCR.” for “RT-PCR from Human Placenta Total RNA.”, “MMP-13” for “MMP-12”, “dialyze” for “dialysis”, “MMP-13.” for “MMP-12.”
as §1, §2, §3, §4, §5, §6

T2 sequence (P22894 99-262): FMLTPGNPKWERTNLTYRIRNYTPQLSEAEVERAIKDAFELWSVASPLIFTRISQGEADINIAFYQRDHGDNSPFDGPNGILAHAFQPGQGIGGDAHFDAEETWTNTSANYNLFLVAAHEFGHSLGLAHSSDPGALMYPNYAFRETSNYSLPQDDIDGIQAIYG
T4 sequence (P39900 100-263): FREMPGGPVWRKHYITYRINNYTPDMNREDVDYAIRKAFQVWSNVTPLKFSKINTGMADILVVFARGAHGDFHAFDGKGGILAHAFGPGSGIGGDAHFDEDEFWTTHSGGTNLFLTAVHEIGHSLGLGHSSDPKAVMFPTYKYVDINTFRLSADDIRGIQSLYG
T3 sequence (P14780 107-707 limits assumed): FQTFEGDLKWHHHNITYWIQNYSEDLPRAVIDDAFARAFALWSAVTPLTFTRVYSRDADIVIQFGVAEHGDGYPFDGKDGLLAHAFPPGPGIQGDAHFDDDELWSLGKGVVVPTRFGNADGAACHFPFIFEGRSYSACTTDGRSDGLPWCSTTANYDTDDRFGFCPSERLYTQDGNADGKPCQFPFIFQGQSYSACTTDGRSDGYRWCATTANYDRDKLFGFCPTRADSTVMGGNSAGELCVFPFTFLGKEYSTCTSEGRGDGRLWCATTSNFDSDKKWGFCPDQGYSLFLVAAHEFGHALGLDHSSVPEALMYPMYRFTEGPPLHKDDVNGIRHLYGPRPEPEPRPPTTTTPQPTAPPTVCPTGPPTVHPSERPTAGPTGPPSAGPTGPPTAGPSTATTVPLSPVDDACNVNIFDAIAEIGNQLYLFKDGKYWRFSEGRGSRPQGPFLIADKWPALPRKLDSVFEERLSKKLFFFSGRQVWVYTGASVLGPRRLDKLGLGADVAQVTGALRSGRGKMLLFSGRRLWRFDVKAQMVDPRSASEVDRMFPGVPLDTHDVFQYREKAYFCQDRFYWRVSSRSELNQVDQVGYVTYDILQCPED

As to `O=C(O)CNS(=O)(=O)c1ccc(-c2ncc(-c3ccc(Cl)cc3)s2)cc1` [Compound B-52], the IC50 against MMP-2 is 2.5 nM; against MMP-8, 453 nM; on MMP-9, 34.7 nM; on MMP-12, 5.55 nM; against MMP-13, 29.5 nM.

Turning to `CC(C)[C@H](NS(=O)(=O)c1ccc(-c2ncc(-c3ccccc3)s2)cc1)C(=O)O` [Compound B-3], the IC50 against MMP-2 was 7.45 nM; against MMP-8, 18.9 nM; on MMP-9, 70.5 nM; against MMP-12, 3.16 nM; against MMP-13 it was 15 nM.

As to `CC(C)[C@@H](NS(=O)(=O)c1ccc(-c2ncc(-c3ccc(Cl)cc3)s2)cc1)C(=O)O` [Compound B-4], the IC50 against MMP-2 was 1.27 nM; on MMP-8, 56.9 nM; at MMP-9 it was 5.71 nM; against MMP-12 it was 3.06 nM; on MMP-13 it was 5.51 nM.

For the compound `C[C@@H](NS(=O)(=O)c1ccc(-c2ncc(-c3ccc(Br)cc3)s2)cc1)C(=O)O` [Compound B-29], the IC50 against MMP-2 stood at 0.313 nM; against MMP-8, 45.2 nM; on MMP-9 it was 5.82 nM; at MMP-12, 0.47 nM; against MMP-13, 2.6 nM.

As to `CSCC[C@@H](NS(=O)(=O)c1ccc(-c2ncc(-c3ccccc3)s2)cc1)C(=O)O` [Compound B-45], the IC50 at MMP-2 amounted to 2.15 nM; on MMP-8, 29 nM; at MMP-9, 26.3 nM; against MMP-12, 2.66 nM; on MMP-13 it was 17.5 nM.

As to `CC(C)[C@H](NS(=O)(=O)c1ccc(-c2ncc(-c3ccc(Cl)cc3)s2)cc1)C(=O)O` [Compound B-5], the IC50 at MMP-2 turned out to be 5.24 nM; on MMP-8, 25.7 nM; at MMP-9, 14.8 nM; against MMP-12, 1.33 nM; on MMP-13, 6.18 nM.

As for `CC(C)[C@@H](NS(=O)(=O)c1ccc(-c2ncc(-c3ccccc3)s2)cc1)C(=O)O` [Compound B-2], the 50% inhibitory concentration (IC50) against MMP-2 amounted to 1.83 nM; against MMP-8, 15.1 nM; at MMP-9 it was 13.8 nM; on MMP-12 it was 2.92 nM; at MMP-13 it was 14.5 nM.

Turning to `CC(C)[C@@H](NS(=O)(=O)c1ccc(-c2ncc(-c3ccc(Br)cc3)s2)cc1)C(=O)O` [Compound B-10], the half-inhibitory concentration (IC50) came out at 0.373 nM against MMP-2; 31.7 nM against MMP-8; 3.96 nM on MMP-9; 0.643 nM at MMP-12; 3.38 nM on MMP-13.

On to `O=C(O)[C@@H](Cc1ccccc1)NS(=O)(=O)c1ccc(-c2ncc(-c3ccc(Cl)cc3)s2)cc1` [Compound B-13], for which the IC50 at MMP-2 is 1.2 nM; against MMP-8, 92.3 nM; on MMP-9, 11.8 nM; against MMP-12, 1.41 nM; on MMP-13 it was 5.08 nM.

On to `O=C(O)[C@@H](Cc1ccccc1)NS(=O)(=O)c1ccc(-c2ncc(-c3ccc(F)cc3)s2)cc1` [Compound B-17], for which the IC50 at MMP-2 worked out at 2.09 nM; against MMP-8, 22.4 nM; at MMP-9, 22.6 nM; at MMP-12, 3.21 nM; against MMP-13, 12.1 nM.

As to `CC(C)C[C@@H](NS(=O)(=O)c1ccc(-c2ncc(-c3ccc(Cl)cc3)s2)cc1)C(=O)O` [Compound B-31], the IC50 against MMP-2 was 3.57 nM; against MMP-8 it was 144 nM; on MMP-9 it was 35.7 nM; against MMP-12, 4.55 nM; against MMP-13 it was 32.6 nM.

Turning to `C[C@@H](NS(=O)(=O)c1ccc(-c2ncc(-c3ccc(Br)cc3)o2)cc1)C(=O)O` [Compound A-10], the IC50 on MMP-2 was 5.46 nM; at MMP-8, 97.4 nM; at MMP-9 it was 135 nM; against MMP-12, 2.42 nM; on MMP-13, 59.2 nM.

As to `C[C@@H](NS(=O)(=O)c1ccc(-c2ncc(-c3ccc4ccccc4c3)s2)cc1)C(=O)O` [Compound B-53], the half-maximal inhibitory concentration (IC50) at MMP-2 amounted to 2.41 nM; against MMP-8, 373 nM; on MMP-9, 173 nM; at MMP-12, 2.54 nM; against MMP-13, 12.4 nM.

With `C[C@H](NS(=O)(=O)c1ccc(-c2ncc(-c3ccc(Cl)cc3)s2)cc1)C(=O)O` [Compound B-26], the IC50 on MMP-2 amounted to 8.3 nM; against MMP-8, 42.5 nM; at MMP-9 it was 54.4 nM; at MMP-12 it was 1.24 nM; at MMP-13, 14.1 nM.

Regarding `CC(C)[C@@H](NS(=O)(=O)c1ccc(-c2ncc(-c3ccc4ccccc4c3)o2)cc1)C(=O)O` [Compound A-50], the IC50 worked out at 4.86 nM against MMP-2; 146 nM against MMP-8; 88.6 nM at MMP-9; 0.699 nM against MMP-12; 11.9 nM on MMP-13.

The values are drawn from patent US6949566B2, “Thiazole and oxazole derivatives” (Shionogi & Co. Ltd., priority 2000, dated 2005).
